Reference: US20090088473A1, “METHOD FOR SCREENING OF PROSTAGLANDIN COMPOUNDS COMPRISING AN OPTIMAL FORMULATION FOR THE ENHANCEMENT OF HAIR GROWTH AND THE STIMULATION OF FOLLICULAR ANAGEN AND FORMULATIONS RESULTING THEREFROM” (CAYMAN CHEMICAL COMPANY, priority 2007, published 2009)

Molecular target: T1, human FP receptor (Homo sapiens, UniProt P43088)
T1 construct: expressed in transfected cells; host or cells: HEK 293 (stably transfected)
Assay: Total intracellular inositol phosphate (InsP) accumulation in HEK 293 cells stably transfected with the human FP receptor
Format: cell-based
Details: FIG. 2; HEK 293 cells stably transfected with human FP receptor; free acid forms; rank among the prostaglandin analogs tested
Excerpt: An exemplary assay method may be described that correlates the ability of test compounds (FP receptor agonists) to induce hair growth with the ability of an established FP receptor agonist, in this case Bimatoprost free acid, to activate the FP receptor. The dose-dependent release of Inositol triphosphate by test compounds compared to the dose-dependent response of Bimatoprost free acid, an established eye lash-enhancing compound, may provide a structure activity relationship that may be used to predict the degree to which a given compound will promote eye lash growth.

T1 sequence (P43088 whole entry): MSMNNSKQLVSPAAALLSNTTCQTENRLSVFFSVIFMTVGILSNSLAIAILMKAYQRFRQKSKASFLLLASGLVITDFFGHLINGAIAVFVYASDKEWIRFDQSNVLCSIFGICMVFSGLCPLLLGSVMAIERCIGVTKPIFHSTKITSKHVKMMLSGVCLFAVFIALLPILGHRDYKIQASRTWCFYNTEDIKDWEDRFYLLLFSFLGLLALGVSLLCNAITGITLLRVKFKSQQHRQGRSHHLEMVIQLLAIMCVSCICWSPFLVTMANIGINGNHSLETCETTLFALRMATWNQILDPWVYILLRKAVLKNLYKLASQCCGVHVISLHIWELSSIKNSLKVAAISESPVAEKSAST

Row | Structure (SMILES) | dose-dependent release of inositol triphosphate
1 | O=C(O)CCC/C=C\C[C@@H]1[C@@H](/C=C/[C@@H](O)COc2cccc(C(F)(F)F)c2)[C@H](O)C[C@@H]1O [(+) fluprestonol] | lowest
2 | O=C(O)CCCC=CCC1C(O)CC(O)C1C=CC(O)COc1ccccc1 (stereo not drawn) [16-phenoxy tetranor PGF2α analog, 16-phenoxy tetranor PGF2α] | highest
